Experimental data published in patent publication US5244795A, “Processes for preparing cholesterol lowering compounds” (Merck & Co., Inc., priority 1992, dated 1993).
In brackets after ≈: the same amount, converted by molar mass.

Experiments:
Type in all cases: cell-based
[1] = tested on: Candida albicans; experiment: Microdilution broth assay; details: 35° C., 24 to 48 hours
Method: (§1) The broad spectrum antifungal activity of the present compounds was further determined by broth dilution methods. The compounds are particularly active towards filamentous fungi and yeasts including Candida albicans and Crypt. neoformans. The sensitivity of filamentous fungi and yeasts was determined using inhibitor dilution assays in microtiter format. A standardized spore suspension for testing the filamentous fungi was prepared by inoculating sterile distilled water with spores such that 1.5-7.5×10^3 colony forming units were added per well. The microtiter wells were filled with 75 μl of yeast nitrogen base containing 1% Dextrose medium (YNB/D) containing compound. Fifty μl of inoculated YNB/D medium was then added to the wells.
(§2) The sensitivity of yeasts was determined by inoculating sterile distilled water with aliquots of a 4-hour yeast culture grown in Yeast Morphology (YM) media at 35° C. and diluting in YNB/D to yield a final concentration of 1.5-7.5×10^3 colony forming units/well. Seventy-five μl of inoculated media was added per well. To test the sensitivity of yeast, compound was solubilized in 10 percent aqueous DMSO at 2.56 mg/ml. The compound was diluted serially in YNB/D from 128 to 0.06 μg/ml. The wells were filled with 75 μl of drug containing media. […] Representative of the antifungal activity are the minimum inhibitory concentration and minimum fungicidal concentration data shown below in Table II: […]

[2] = tested on: Candida guilliermondii; experiment: Microdilution broth assay; details: Meyerozyma guilliermondii; strain MY 1019; 35° C., 24 to 48 hours; read-out: MIC (minimum inhibitory concentration)
Method: as §1, §2

[3] = tested on: Cryptococcus neoformans; experiment: Microdilution broth assay; details: strain MY 1051, 35° C., 24 to 48 hours, read-out: MIC (minimum inhibitory concentration)
Method: as §1, §2

[4] = tested on: Candida parapsilosis; experiment: Microdilution broth assay; details: Lodderomyces parapsilosis; strain MY 1010; 35° C., 24 to 48 hours; read-out: MIC (minimum inhibitory concentration)
Method: as §1, §2

[5] = tested on: Saccharomyces cerevisiae; experiment: Microdilution broth assay; details: strain MY 1976, 35° C., 24 to 48 hours, read-out: MIC (minimum inhibitory concentration)
Method: as §1, §2

[6] = tested on: T. mentagrophytes; experiment: Microdilution broth assay; details: Trichophyton mentagrophytes; strain MF 4864; 35° C., 48-72 hours; read-out: MIC (minimum inhibitory concentration)
Method: as §1, §2

[7] = tested on: Aspergillus fumigatus; experiment: Microdilution broth assay; details: strain MF 4839, 35° C., 48-72 hours, read-out: MIC (minimum inhibitory concentration)
Method: as §1, §2

[8] = tested on: Candida tropicalis; experiment: Microdilution broth assay; details: strain MY 1012, 35° C., 24 to 48 hours, read-out: MIC (minimum inhibitory concentration)
Method: as §1, §2

[9] = tested on: Trichoderma lignorum; experiment: FISP disc diffusion assay; design: key: F: clear zone, fuzzy edges; S: slightly hazy zone (some growth observed throughout zone); H: hazy zone (considerable growth observed throughout zone); V: very hazy zone (zone of inhibition is barely discernable); R: zone displays a ring of resistant growth; no qualifier: clear zone throughout, sharp edges; details: 250 μg/ml in CH2Cl2
Excerpt: (§3) The FISP assay employs disc diffusion susceptibility testing methods to generate a spectrum of activity against a panel of representative yeasts, filamentous fungi and bacteria.
(§4) The filamentous fungi used in the assay were Penicillium sp. Aspergillus niger, Trichoderma sp., Phoma sp., Trichoderma lignorum, Fusarium oxysporum, Ustilago maydis, Ceratocystis ulmi, Alternaria soloni, Verticillium serrae, Botrytis allii, Scopulariopsis communis, Cephalosporium sp., Cercospora beticola, Rhizomucor miehei, Aspergillus flavus and Aspergillus fumigatus.
(§5) For carrying out the assay, seeded assay plates are prepared in the following manner according to the type of assay strain.
(§6) Inocula for filamentous fungi are prepared by scraping the surface of stock plates maintained on potato dextrose agar with a moistened sterile dacron swab. The spores and mycelia are then suspended in 10 milliliters of sterile potato dextrose broth and adjusted to 65 percent transmission at 660 nm.
(§7) Assay plates for the yeasts and filamentous fungi are prepared by diluting the inoculum into appropriate molten agar medium, cooled to 45° C. to obtain a final concentration of 4 percent.
(§8) The seeded agar media thus prepared are dispensed into petri dishes for assays (11 ml per dish).
(§9) The samples to be tested for production of antifungal agent are applied to 6.2 mm filter paper discs (25 μl/disc) and air dried at 24° C. When the sample to be tested is crude broth, it may be centrifuged prior to application. The discs bearing the material to be tested are then applied employing sterile conditions to the seeded assay plates. The assay plates are then incubated at either 28° C. or 37° C. for 24 hours. In one of the assays for Bacillus subtilis, the sample is applied to a disc previously impregnated with 4M potassium chloride at 25 μl/disc and then air dried.
(§10) Following incubation, the inhibition zones are measured and recorded. The measurements are made from the extreme edge where growth differs from the background zone. The zones are noted as to appearance as fuzzy edge and clear center, hazy throughout, slightly hazy, very hazy or ringed.
(§11) FISP data is reported as the diameter (in mm.) of the zone of inhibition of growth in agar diffusion assays. The zone is determined by measuring growth that differs from the background lawn. A qualifier is also added to describe the zone quality as listed below: no qualifier: clear zone throughout, sharp edges

[10] = tested on: Ustilago maydis; experiment: FISP disc diffusion assay; design: key: F: clear zone, fuzzy edges; S: slightly hazy zone (some growth observed throughout zone); H: hazy zone (considerable growth observed throughout zone); V: very hazy zone (zone of inhibition is barely discernable); R: zone displays a ring of resistant growth; no qualifier: clear zone throughout, sharp edges; details: 250 μg/ml in CH2Cl2
Excerpt: as §3, §4, §5, §6, §7, §8, §9, §10, §11

[11] = tested on: Alternaria solani; experiment: FISP disc diffusion assay; design: key: F: clear zone, fuzzy edges; S: slightly hazy zone (some growth observed throughout zone); H: hazy zone (considerable growth observed throughout zone); V: very hazy zone (zone of inhibition is barely discernable); R: zone displays a ring of resistant growth; no qualifier: clear zone throughout, sharp edges; details: 250 μg/ml in CH2Cl2
Excerpt: as §3, §4, §5, §6, §7, §8, §9, §10, §11

[12] = tested on: Aspergillus flavus; experiment: FISP disc diffusion assay; design: key: F: clear zone, fuzzy edges; S: slightly hazy zone (some growth observed throughout zone); H: hazy zone (considerable growth observed throughout zone); V: very hazy zone (zone of inhibition is barely discernable); R: zone displays a ring of resistant growth; no qualifier: clear zone throughout, sharp edges; details: 250 μg/ml in CH2Cl2
Excerpt: as §3, §4, §5, §6, §7, §8, §9, §10, §11

[13] = tested on: Fusarium oxysporum; experiment: FISP disc diffusion assay; design: key: F: clear zone, fuzzy edges; S: slightly hazy zone (some growth observed throughout zone); H: hazy zone (considerable growth observed throughout zone); V: very hazy zone (zone of inhibition is barely discernable); R: zone displays a ring of resistant growth; no qualifier: clear zone throughout, sharp edges; details: 250 μg/ml in CH2Cl2
Excerpt: as §3, §4, §5, §6, §7, §8, §9, §10, §11

SMILES: CC(/C=C/C=C(\C)C(O)C(C)C(=O)O[C@H]1C[C@H](C)C=C2C=C[C@@]3(C)O[C@@H](O)CC(=O)[C@]3(C)[C@H]21)=C\C=C\C(=O)O (some centres unmarked) [Compound A]
- MIC ([1]; Candida albicans, strain MY 1055, read-out: MIC (minimum inhibitory concentration)): ≤ 0.06 µg/mL
- MIC (minimum inhibitory concentration) ([1]; strain MY 1028): ≤ 0.06 µg/mL
- MIC [2]: > 128 µg/mL
- MIC [3]: 32 µg/mL (≈ 59.2 µM)
- MIC [4]: 0.25 µg/mL (≈ 0.462 µM)
- MIC [5]: > 128 µg/mL
- MIC [6]: 32 µg/mL (≈ 59.2 µM)
- MIC [7]: 64 µg/mL (≈ 118 µM)
- MIC [8]: ≤ 0.06 µg/mL
- zone quality qualifier [9]: F
- zone quality qualifier [10]: V
- zone quality qualifier [11]: F
- zone quality qualifier [12]: H
- zone quality qualifier [13]: S
